Here are results for three compounds from the supplement of paper PMC12613149.

Series [1] in a line: reversed-phase LC retention time (C18, 15 min MeOH gradient); higher = more hydrophobic / later elution.
Series [2] is described as follows: collision cross section (TIMS, N2 drift gas) of the primary ion; higher = larger gas-phase ion size.
[3] abbreviates: ionization mode: ESI+, ion species: [M+H]+.
[4] abbreviates: ionization mode: ESI-, ion species: [M-H]-.

As for `CC(Cc1ccc(C(C)(C)C(=O)O)cc1)CN1CC(C)OC(C)C1` (stereo not given) [Fenpropimorph acid], the “reversed-phase LC retention time” value in series [1] (setting [3]) came to 10.8 min; in series [1] (setting [4]), 14.3 min. In addition, the collision cross section in series [2] (setting [3]) turned out to be 177.46 Å²; in series [2] (setting [4]), 188.8 Å².

`O=C(c1ccc(OCCN2CCCCC2)cc1)c1c(-c2ccc(O)cc2)sc2cc(O)ccc12` [Raloxifene]: the “reversed-phase LC retention time” value amounted to 11.3 min in series [1] (setting [3]) and 15.4 min in series [1] (setting [4]). Also, the collision cross section in series [2] (setting [3]) is on record as 216.23 Å²; in series [2] (setting [4]), 213.83 Å².

`COC=C(C(=O)OC)c1ccccc1Oc1cc(Oc2ccccc2C#N)ncn1` [Azoxystrobin]: the “reversed-phase LC retention time” value in series [1] (setting [3]) worked out at 13.8 min. Also, in series [2] (setting [3]), the collision cross section stood at 196.56 Å².
